What was measured:
Type in all cases: cell-based
Aeromonas hydrophila = assay: QUAT susceptibility of single-species aggregates (survivors); conditions: for No. of survivors after 20 minutes following treatment of 100 μm aggregate with 1 mM QUAT: 100 μm single species aggregate; for No. of survivors (%) at 20 min: 1 mM QUAT
Protocol: (§1) In another version of the present invention, one would test a biocide with the aggregates described above in the following manner: Volumes (1-10 mL) of customized aggregate suspensions, formed as described earlier, are held in suitable containers (microtitre plate well, mini-centrifuge tubes, pyrex glass test-tubes) to which are added appropriate concentrations of the test biocide (volume 5-25% of suspension volume). After a chosen contact times have elapsed (1-30 minutes) samples are removed to a neutralizer solution appropriate to the chosen biocide containing the antagonistic sugar (50 mM) for the chosen lectin (See Table 1). The aggregates disperse into single cell suspension that upon which simple plate count estimates of the viable surviving cell number may be conducted. Control experiments are conducted on disaggregated populations created by resuspending the customized aggregates in the antagonistic sugar (50 mM) prior to the addition of biocide.
(§2) Single species (Pseudomonas sp. 2881, Aeromonas hydrophila and Corynebacterium aquaticum) aggregates of 10, 50 and 100 μm in size were constructed and treated with different concentrations of three simple quaternary ammonium compounds (n-alkyl dimethyl benzyl ammonium chloride where n=12, 14 or 16).

[1] = test system: Corynebacterium aquaticum; assay: as above; conditions: for No. of survivors after 20 minutes following treatment of 100 μm aggregate with 1 mM QUAT: 100 μm single species aggregate; for No. of survivors (%) at 20 min: 1 mM QUAT
Protocol: as §1, §2

Pseudomonas sp. 2881 [2] = assay: as above; conditions: for No. of survivors after 20 minutes following treatment of 100 μm aggregate with 1 mM QUAT: 100 μm single species aggregate; for No. of survivors (%) at 20 min: 1 mM QUAT
Protocol: as §1, §2

A. hydrophila = assay: QUAT susceptibility in structured multi-species aggregates (survivors); conditions: 1 mM QUAT
Protocol: (§3) In another method of the present invention, one would form a multilamellar spherical aggregate in the following manner: In order to construct lamellar aggregates, aggregates of defined size should be prepared for the ‘core’ under XS (see i or ii above). Cores, either homogeneous or heterogeneous, are harvested by centrifugation (3000 g 10 minutes) and resuspended in the original volume of phosphate buffered saline (pH 7.1). Mix equal parts of the harvested core aggregates and a washed suspension of the ‘coating organism’ (1×10^7-5×10^8 cells/mL).
as §1
(§4) Binary lamellar aggregates were constructed for all combinations of the three test species. Core aggregate size was 50 microns diameter. Cores were coated with an equal number of the partner species. Each test species served as both core-aggregate and shell in these experiments. […] When the cells were aggregated prior to exposure to QUATs, then it became apparent that there was not only a protection afforded by aggregation but that the relative location of one species to the other affected the inactivation. Selected data is presented that compares inactivation of unordered (homogeneous) aggregates of two different species with ones where each of the partner organisms serves as either the core or shell to the other.

C. aquaticum = assay: as above; conditions: 1 mM QUAT
Protocol: as §3, §1, §4

Pseudomonas sp. 2881 [3] = assay: as above; conditions: 1 mM QUAT
Protocol: as §3, §1, §4

[4] = single-species aggregate Approx. 10 μm
[5] = single-species aggregate Approx. 50 μm
[6] = single-species aggregate Approx. 100 μm
[7] = 100 μm A. hydrophila - C. aquaticum aggregate, Unordered mixture
[8] = 100 μm Pseudomonas sp. 2881 - A. hydrophila aggregate, Unordered mixture
[9] = 100 μm aggregate, A. hydrophila shell, C. aquaticum core
[10] = 100 μm aggregate, A. hydrophila shell, Pseudomonas sp. 2881 core
[11] = 100 μm aggregate, C. aquaticum shell, A. hydrophila core
[12] = 100 μm aggregate, Pseudomonas sp. 2881 shell, A. hydrophila core
[13] = 100 μm Pseudomonas sp. 2881 - C. aquaticum aggregate, Unordered mixture
[14] = 100 μm aggregate, C. aquaticum shell, Pseudomonas sp. 2881 core
[15] = 100 μm aggregate, Pseudomonas sp. 2881 shell, C. aquaticum core

Q: Which results are given for “n-alkyl dimethyl benzyl ammonium chloride [C12 QUAT]”?
A: No. of survivors after 20 minutes following treatment of 100 μm aggregate with 1 mM QUAT (Aeromonas hydrophila): 0.635; No. of survivors after 20 minutes following treatment of 100 μm aggregate with 1 mM QUAT [1]: 0.240; No. of survivors after 20 minutes following treatment of 100 μm aggregate with 1 mM QUAT (Pseudomonas sp. 2881 [2]): 0.711

Q: What does the source list for “n-alkyl dimethyl benzyl ammonium chloride [C16 QUAT]”?
A: No. of survivors after 20 minutes following treatment of 100 μm aggregate with 1 mM QUAT (Aeromonas hydrophila): 0.594; No. of survivors after 20 minutes following treatment of 100 μm aggregate with 1 mM QUAT [1]: 0.266; No. of survivors after 20 minutes following treatment of 100 μm aggregate with 1 mM QUAT (Pseudomonas sp. 2881 [2]): 0.724

Q: How did the “No. of survivors (%) at 20 min” value (Aeromonas hydrophila; No aggregate (free cells)) turn out when “n-alkyl dimethyl benzyl ammonium chloride [C14 QUAT]” was run?
A: Its value is <0.00001%.

Q: And the “No. of survivors (%) at 20 min” value (Aeromonas hydrophila; [4])?
A: Its value is 0.0041%.

Q: And the “No. of survivors (%) at 20 min” value (Aeromonas hydrophila; [5])?
A: The value was 0.0282%.

Q: And the “No. of survivors (%) at 20 min” value (Aeromonas hydrophila; [6])?
A: The value was 0.4197%.

Q: And the “No. of survivors after 20 minutes following treatment of 100 μm aggregate with 1 mM QUAT” value (from here on “No. of survivors … with 1 mM QUAT”) (Aeromonas hydrophila)?
A: Its value is 0.420.

Q: What about the “No. of survivors (%) at 20 min” value ([1]; No aggregate (free cells)) of the same substance?
A: The value was <0.00001%.

Q: And the “No. of survivors (%) at 20 min” value [1, 4]?
A: Its value is 0.0002%.

Q: What about the “No. of survivors (%) at 20 min” value [1, 5] of the same substance?
A: Its value is 0.0027%.

Q: What about the “No. of survivors (%) at 20 min” value [1, 6] of the same substance?
A: The value was 0.0829%.

Q: What about the “No. of survivors … with 1 mM QUAT” value [1] of the same substance?
A: The value was 0.083.

Q: And the “No. of survivors (%) at 20 min” value (Pseudomonas sp. 2881 [2]; No aggregate (free cells))?
A: The value was 0.001%.

Q: What about the “No. of survivors (%) at 20 min” value (Pseudomonas sp. 2881 [2]; [4]) of the same substance?
A: The value was 0.021%.

Q: What about the “No. of survivors (%) at 20 min” value (Pseudomonas sp. 2881 [2]; [5]) of the same substance?
A: Its value is 0.0598%.

Q: What about the “No. of survivors (%) at 20 min” value (Pseudomonas sp. 2881 [2]; [6]) of the same substance?
A: Its value is 0.5942%.

Q: What about the “No. of survivors … with 1 mM QUAT” value (Pseudomonas sp. 2881 [2]) of the same substance?
A: The value was 0.594.

Q: What about the “% No. survivors after 20 minutes” value (A. hydrophila; [7]) of the same substance?
A: The value was 0.172%.

Q: What about the “% No. survivors after 20 minutes” value (A. hydrophila; [8]) of the same substance?
A: The value was 0.112%.

Q: What about the “% No. survivors after 20 minutes” value (A. hydrophila; [9]) of the same substance?
A: Its value is 0.131%.

Q: What about the “% No. survivors after 20 minutes” value (A. hydrophila; [10]) of the same substance?
A: The value was 0.0065%.

Q: And the “% No. survivors after 20 minutes” value (A. hydrophila; [11])?
A: Its value is 0.365%.

Q: What about the “% No. survivors after 20 minutes” value (A. hydrophila; [12]) of the same substance?
A: The value was 0.176%.

Q: What about the “% No. survivors after 20 minutes” value (C. aquaticum; [7]) of the same substance?
A: Its value is 0.0364%.

Q: What about the “% No. survivors after 20 minutes” value (C. aquaticum; [13]) of the same substance?
A: Its value is 0.0412%.

Q: And the “% No. survivors after 20 minutes” value (C. aquaticum; [9])?
A: Its value is 0.0457%.

Q: And the “% No. survivors after 20 minutes” value (C. aquaticum; [11])?
A: Its value is >0.001%.

Q: What about the “% No. survivors after 20 minutes” value (C. aquaticum; [14]) of the same substance?
A: The value was >0.001%.

Q: What about the “% No. survivors after 20 minutes” value (C. aquaticum; [15]) of the same substance?
A: Its value is 0.0698%.

Q: What about the “% No. survivors after 20 minutes” value (Pseudomonas sp. 2881 [3]; [8]) of the same substance?
A: Its value is 0.241%.

Q: And the “% No. survivors after 20 minutes” value (Pseudomonas sp. 2881 [3]; [13])?
A: The value was 0.264%.

Q: What about the “% No. survivors after 20 minutes” value (Pseudomonas sp. 2881 [3]; [10]) of the same substance?
A: Its value is 0.319%.

Q: What about the “% No. survivors after 20 minutes” value (Pseudomonas sp. 2881 [3]; [14]) of the same substance?
A: The value was 0.425%.

Q: And the “% No. survivors after 20 minutes” value (Pseudomonas sp. 2881 [3]; [12])?
A: Its value is 0.147%.

Q: What about the “% No. survivors after 20 minutes” value (Pseudomonas sp. 2881 [3]; [15]) of the same substance?
A: The value was 0.219%.

Source: patent US20040248275A1, “Engineered bacterial aggregates” (priority 2003, published 2004)
